Measured values: US11478489B2, “Selective accretion of cytoprotectant in radiation-sensitive tissues and uses thereof” (WILLIAM MARSH RICE UNIVERSITY, priority 2017, dated 2022)
Where two headings read alike, the source gives them in different places. Each block holds one molecule with its values, some of them ahead of it.

Experiments:
[1] = Methylene blue gut assay (GI transit time); format: in vivo, C57BL/6 mice
Protocol: In order to determine the rate at which oral solutions such as WR-2721 traverse the digestive tract of 8-week old C57BL/6 mice following oral gavage, a 1% (w/v) solution of methylene blue in PBS was gavaged in a total volume of 0.1 ml. Mice were then euthanized at 5, 10, 15, 25 and 30 min after the dye administration and the progress of the methylene blue stain through the intestines was examined. Mice were anesthetized with isoflurane 8 min prior to euthanasia following the same procedure used prior to irradiation (8 min at 3% isoflurane and oxygen flow rate of 2 L/min) to account for any potential changes it might have on GI transit time. Methylene blue dye progress was examined in situ for comparison with the location of our standard radiation field and then the intestine was excised so that distance traveled could be determined.

[2] = test system: duodenal and jejunal crypts; test: Microcolony assay (Withers-Elkind), surviving crypts after 12 Gy whole body irradiation; format: in vivo, C3Hf/KamLaw mice; settings: jejunum, oral, 30 min prior to 12 Gy WBI; no further benefit at 1000 mg/kg
Protocol: (§1) WR-2721 Trihydrate (Toronto Research Chemicals Inc; North York, Ontario, Canada) was diluted in PBS (with 0.2 conversion factor to adjust for trihydrate) and was administered by IP injection at 25 or 250 or 500 mg/kg or by oral gavage at doses […] 150 to 1000 mg/kg in a volume of 0.1 ml.
For the microcolony assay, a single dose of 12 Gy whole body irradiation (WBI) was administered 15 min or 30 min after WR-2721 treatment using a Pantak 300 x-ray unit (Pantak; East Haven, Conn.), with 300 kVp X-rays at a dose rate of 1.84 Gy/min. Un-anesthetized mice were loosely restrained in a well ventilated 15×15×2 cm Lucite box during WBI.
Viable jejunal crypts were quantified following a single dose of 12 Gy WBI+/− a single oral dose of WR-2721 given at 15 min or 30 min prior to radiation using the microcolony assay. Mice were euthanized 3 days and 14 hours after receiving WBI, and segments of jejunum and duodenum were resected and fixed in 10% neutral buffered formalin. Tissue was then embedded in paraffin, and four transverse slices of jejunum and duodenum were stained with hematoxylin and eosin per mouse. The number of regenerating crypts per transverse section was scored microscopically and averaged over the 4 sections per animal for each tissue type. All slides were scored by a single observer blinded to treatment group. […]

[3] = Tolerability: body weight and food consumption as a model of nausea; format: in vivo, C57BL/6JLaw mice
Protocol: as §1
Severe nausea is a common and worrisome side effect of systemic WR-2721, and the concern that oral administration of the drug might exacerbate this side effect was examined. […] Thus, body weight and food consumption was closely monitored as a model of nausea in mice. Based on the results of the microcolony assay (FIG. 1), 500 mg/kg were used as the dose for toxicity testing. Mice were treated daily for 5 consecutive days with vehicle or WR-2721 administered IP or Per os (PO), and body weight and food consumption were monitored daily (FIGS. 2A and 2B, respectively). There was only one vehicle control group that was subjected to both gavage and intraperitoneal injections to more stringently control for the stress of drug administration from either IP or PO route. Despite this intensive intervention, the vehicle control animals maintained their initial bodyweight and food consumption throughout the study (FIGS. 2A and 2B).

[4] = test system: C57BL/6 mice given lethal fractionated radiation; test: Survival study after fractionated SBRT to the upper abdomen; format: in vivo, C57BL/6JLaw mice; settings: oral 500 mg/kg 25 min prior to each of 5 daily fractions of 12.5 Gy, 10 mm field; all vehicle controls died in fewer than 10 days
Protocol: (§2) For survival studies, SBRT was given for 5 consecutive days 25 min after administration of vehicle or WR-2721 using the XRAD 225Cx small animal irradiator (Precision X-Ray; North Branford, Conn.) fitted with a conformal collimator to produce a circular 10 mm diameter radiation field. Mice were anesthetized with isoflurane gas for CT imaging and irradiation. Each mouse was imaged using the XRAD 225Cx cone beam CT prior to irradiation in order to align the radiation field so that the cranial edge of the field was located 5 mm below the diaphragm at the isocenter of the mouse. This field exposed the pancreas, duodenum, jejunum and liver to radiation. Radiation was administered anterior-posterior-posterio-anterior (AP-PA).
(§3) Mice were treated with WR-2721 or vehicle by intraperitoneal (IP) injection or oral gavage followed by SBRT and monitored on a daily basis. […] Time to euthanasia and percent survival were assessed.
It was hypothesized that the maximal benefit of radioprotection would likely occur between 12 and 13 Gy at 12.5 Gy×5 fractions (62.5 Gy; D2Eq=117.2 Gy). […] Remarkably, 100% of mice that received oral WR-2721 lived beyond 30 days, while all vehicle controls died in fewer than 10 days FIG. 3D, log rank p=0.0035).

[5] = test system: KPC mice with spontaneous pancreatic cancer; test: Survival of tumor-bearing KPC mice after SBRT; format: in vivo, Kras LSL/+; Trp53 FL/+; Ptf1a Cre/+ (KPC) mice; settings: SBRT 12.5 Gy x 5 + oral WR-2721 25 min prior to each fraction; VEH and SBRT+VEH 15 days
Protocol: as §2, §3
Further confirmation is illustrated in FIG. 6. KPC Mice were enrolled onto the study shortly after diagnosis and were treated to vehicle alone, SBRT with vehicle or SBRT with oral WR-2721. The SBRT field was 10 mm given AP/PA to the tumor and the dose was 12.5 Gy per day for 5 consecutive days for a total dose of 62.5 Gy (EQD2=117.2 Gy; α/β10=140.6). The tumors were identified by micro CT and ultrasound on a daily basis without fiducials. […]

[6] = mouse, in vivo, 25 min
Protocol: Next, the specificity of WR-1065 enrichment in intestines was determined in a genetically engineered mouse model. Kras^LSL/+; Trp53^FL/+; Ptfla^Cre/+ (KPC) mice that develop spontaneous pancreatic cancer were bred, and then backcrossed to a C57BL/6 background over 10 generations to eliminate the confounding issue of genetic variance from […] mice. These autochthonous tumors are thought to recapitulate the desmoplasia observed in human tumors that may make these tumors more aggressive. To be an effective an effective clinical radioprotectant, WR-1065 should not accumulate in tumors. Thus, plasma, liver, duodenum, jejunum and pancreatic tumors were collected 25 min after oral administration of 500 mg/kg (HED=41 mg/kg), or IP administration of 250 mg/kg WR-2721 (HED=20 mg/kg) to determine the concentrations of the WR-1065 (see schema in FIG. 4D).

[7] = given intravenously; cited from earlier work
[8] = LC/MS-MS analysis of WR-1065 plasma and tissue concentrations, C57BL/6 mice; settings: WR-2721 500 mg/kg oral, 25 min
Protocol: Mice were treated with either 500 mg/kg of WR-2721 by oral gavage, or 250 mg/kg by IP injection. After 17 min had elapsed, the mice were anesthetized with isoflurane gas (3% isoflurane, oxygen flow rate of 2 L/min). After 8 min of anesthesia, whole blood and tissues were collected. The total amount of time between treatment and tissue collection was 25 min.
While under isoflurane anesthesia, the whole blood sample was collected via cardiac puncture and was immediately transferred to a BD Microtainer® blood collection tube containing K2-EDTA (Becton Dickinson; Franklin Lakes, N.J.). The K2-EDTA whole blood was then processed to plasma by centrifugation at 3,000 g for 4 min. After processing, a volume of the plasma supernatant (typically 200 μL) was removed and immediately transferred to a fresh 1.4 mL Matrix polypropylene (PP) tube (Thermo Fisher Scientific; Waltham, Mass.) containing a 50 μL aliquot of 10% trichloroacetic acid (TCA). After vortexing, the TCA-treated plasma samples were stored on ice for transport from the vivarium to the laboratory for further processing. The TCA-treated plasma samples were then centrifuged at 17,000 g for 5 min, and the supernatant was transferred to a fresh 1.4 mL Matrix tube, and the samples were either extracted and analyzed immediately or capped for −80° C. storage until analysis. […]

[9] = oral 500 mg/kg daily for 5 consecutive days

time at which dye was in the jejunum ([1]; C57BL/6, mouse, in vivo, po): 15 to 30 min
time to reach the duodenum ([1]; C57BL/6, mouse, in vivo, po): ≤ 10 min
SMILES: CN(C)c1ccc2nc3ccc(=[N+](C)C)cc-3sc2c1 [Methylene blue, methylene blue]
dye front within 30 min ([1]; oral gavage, 1% (w/v) in PBS, 0.1 ml): had not reached the cecum or large intestine

SMILES: NCCCNCCSP(=O)(O)O [WR-2721, S-2-(3-aminopropylamino)ethyl dihydrogen phosphorothioate]
dose at which radiation protection was maximized [2]: 500 mg/kg
day by which euthanasia was required ([3]; intraperitoneal 500 mg/kg daily): ≤ 4 days
body weight and food consumption ([3]; intraperitoneal 500 mg/kg daily, 5 consecutive days planned): dramatic decrease in food consumption and body weight
body weight and food consumption [3, 9]: modest initial decrease in body weight and food consumption
time to complete recovery of body weight after stopping treatment [3, 9]: ≤ 2 days
mice that lived beyond 30 days [4]: 100%
median survival [5]: 40 days
WR-1065 concentration in duodenum ([6]; ip, 250 mg/kg): 236.2±8.6 pmol WR-1065/mg tissue
WR-1065 concentration in jejunum ([6]; ip, 250 mg/kg): 275.5±5.0 pmol WR-1065/mg tissue
WR-1065 concentration in liver ([6]; ip, 250 mg/kg): 420±69.8 pmol WR-1065/mg tissue
WR-1065 concentration in pancreatic tumors ([6]; ip, 250 mg/kg): 248±30.2 pmol WR-1065/mg tissue
WR-1065 concentration in duodenum ([6]; po, 500 mg/kg): 200.6±23.3 pmol WR-1065/mg tissue
WR-1065 concentration in jejunum ([6]; po, 500 mg/kg): 757.7±26.8 pmol WR-1065/mg tissue
WR-1065 concentration in liver ([6]; po, 500 mg/kg): 59.9±26.8 pmol WR-1065/mg tissue
WR-1065 concentration in tumor ([6]; po, 500 mg/kg): 24.5±1.9 pmol WR-1065/mg tissue
enrichment of the drug in the intestines compared to tumor ([6]; po, 500 mg/kg): 10-40 fold
side effects [7]: severe nausea and hypotension
enhancement of WR-1065 within duodenum and jejunum compared to liver [8]: six- to twelve-fold
